According to US20080300237A1, “Pharmaceutically Active Diazepanes” (priority 2005, published 2008):

Biological target: T1, human LFA-1 (Homo sapiens, UniProt P20701)
T1 construct: endogenous in cells; host or cells: JY cells (human lymphoblastoid B cell line); The ICAM-1 fusion partner is made in the baculovirus system
Experiment: In vitro cell free assay: binding of soluble human ICAM-1 to immobilized human LFA-1
Settings: immobilized human LFA-1, biotinylated recombinant ICAM-1, read-out: IC50, inhibition of adhesion of LFA-1 to ICAM-1
Experimental: A. In Vitro TEST SYSTEM (Cell Free Assay)
The assay determines the binding of soluble human ICAM-1 to immobilized human LFA-1. LFA-1 is purified from JY cells, a human lymphoblastoid B cell-line, by immunoaffinity chromatography analogously as described by Dustin et al., J. Immunol. 148, 2654-2663, 1992. ICAM-1 mouse Cκ fusion protein (ICAM-1) is produced using the baculovirus system as described by Weitz-Schmidt et al., Anal. Biochem. 238, 184-190, 1996.
Purified LFA-1 is diluted 1:20 in phosphate buffered saline (PBS) containing 2 mM MgCl2, pH 7.4 and coated onto microtiter plates (Nunc) at 37° for 3 hours. Plates are blocked with 1% heat-treated bovine serum albumin in PBS for 2 hours at 37° followed by a washing step using PBS, 2 mM MgCl2, 1% fetal calf serum, pH 7.4 (assay buffer). Compounds of the present invention (10 mM solution in DMSO) are diluted in assay buffer and added to the plates. Biotinylated recombinant ICAM-1 in assay buffer (6 μg/ml) is added and allowed to bind at 37° for one hour. After incubation, wells are washed with assay buffer. Streptavidinperoxidase diluted 1:5000 in assay buffer is added and incubated for 45 min at 37°. […] The reaction is stopped after 20 minutes and bound ICAM-1 is determined by measuring the optical density at 405 nm in a microplate reader.

T1 sequence (P20701 26-1170): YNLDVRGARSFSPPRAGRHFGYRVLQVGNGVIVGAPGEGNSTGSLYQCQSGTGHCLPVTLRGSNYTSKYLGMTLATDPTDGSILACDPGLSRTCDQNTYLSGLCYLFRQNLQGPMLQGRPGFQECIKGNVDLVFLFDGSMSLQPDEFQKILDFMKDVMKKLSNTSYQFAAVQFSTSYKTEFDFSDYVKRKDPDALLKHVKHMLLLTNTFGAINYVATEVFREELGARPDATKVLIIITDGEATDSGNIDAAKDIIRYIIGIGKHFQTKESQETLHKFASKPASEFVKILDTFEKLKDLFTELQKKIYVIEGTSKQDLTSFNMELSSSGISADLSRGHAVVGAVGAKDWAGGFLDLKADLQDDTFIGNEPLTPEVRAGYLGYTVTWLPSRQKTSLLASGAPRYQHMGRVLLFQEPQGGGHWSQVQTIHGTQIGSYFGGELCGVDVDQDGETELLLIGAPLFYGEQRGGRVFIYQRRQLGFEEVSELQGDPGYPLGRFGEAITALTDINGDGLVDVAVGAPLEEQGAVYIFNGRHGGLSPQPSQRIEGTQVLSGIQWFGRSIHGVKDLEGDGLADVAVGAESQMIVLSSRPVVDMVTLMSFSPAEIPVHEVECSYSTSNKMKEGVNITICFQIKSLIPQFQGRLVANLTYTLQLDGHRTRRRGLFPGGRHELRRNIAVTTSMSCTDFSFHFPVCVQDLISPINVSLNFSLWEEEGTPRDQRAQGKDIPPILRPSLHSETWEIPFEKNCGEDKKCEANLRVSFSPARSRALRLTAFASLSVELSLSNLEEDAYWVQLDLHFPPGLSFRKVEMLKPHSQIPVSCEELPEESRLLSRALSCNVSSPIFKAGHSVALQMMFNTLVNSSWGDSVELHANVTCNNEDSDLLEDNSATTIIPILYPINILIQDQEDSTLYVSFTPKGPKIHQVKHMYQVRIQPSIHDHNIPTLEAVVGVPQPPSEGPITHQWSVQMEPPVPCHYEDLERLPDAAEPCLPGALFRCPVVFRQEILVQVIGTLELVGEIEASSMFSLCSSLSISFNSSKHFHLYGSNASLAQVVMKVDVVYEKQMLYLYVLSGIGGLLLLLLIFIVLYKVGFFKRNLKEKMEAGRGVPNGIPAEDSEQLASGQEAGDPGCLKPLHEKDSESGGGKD
T1 sequence (P05107 23-769 partner): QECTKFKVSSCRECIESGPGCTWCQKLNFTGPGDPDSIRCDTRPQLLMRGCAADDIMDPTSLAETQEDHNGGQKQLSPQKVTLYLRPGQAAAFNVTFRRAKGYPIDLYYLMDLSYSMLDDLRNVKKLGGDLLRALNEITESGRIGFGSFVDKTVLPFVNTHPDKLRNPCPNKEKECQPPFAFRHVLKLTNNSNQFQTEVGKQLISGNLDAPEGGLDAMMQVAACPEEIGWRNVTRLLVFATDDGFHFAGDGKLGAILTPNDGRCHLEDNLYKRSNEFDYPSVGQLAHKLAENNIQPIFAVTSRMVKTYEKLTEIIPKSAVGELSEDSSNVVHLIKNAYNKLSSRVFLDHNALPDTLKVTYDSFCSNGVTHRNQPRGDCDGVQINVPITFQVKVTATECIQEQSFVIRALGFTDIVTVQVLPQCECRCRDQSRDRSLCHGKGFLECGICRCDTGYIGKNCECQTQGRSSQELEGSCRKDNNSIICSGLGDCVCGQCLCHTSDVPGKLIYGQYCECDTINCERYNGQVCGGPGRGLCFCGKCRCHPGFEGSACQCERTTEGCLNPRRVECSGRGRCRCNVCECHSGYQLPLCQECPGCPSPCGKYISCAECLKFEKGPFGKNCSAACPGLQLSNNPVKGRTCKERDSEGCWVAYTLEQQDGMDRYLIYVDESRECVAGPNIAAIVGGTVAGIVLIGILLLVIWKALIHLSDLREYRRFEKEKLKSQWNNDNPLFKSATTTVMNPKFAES

| SMILES | IC50 |
| --- | --- |
| C[C@@H]1CCN([C@H](Cc2cccc3ccccc23)C(N)=O)C(=O)[C@H](c2cccc(Cl)c2)N1C(=O)CNC(=O)c1ccccc1 [Example 13, N-{2-[(2S,7R)-4-((R)-1-Carbamoyl-2-naphthalen-1-yl-ethyl)-2-(3-chloro-phenyl)-7-methyl-3-oxo-[1,4]diazepan-1-yl]-2-oxo-ethyl}-benzamide] | 430 nM |
| C[C@@H]1CCN([C@H](Cc2cccc3ccccc23)C(N)=O)C(=O)[C@H](c2cccc(Cl)c2)N1C(=O)CNC(=O)[C@@H]1CCCN1 [Example 14, (S)-Pyrrolidine-2-carboxylic acid {2-[(2S,7R)-4-((R)-1-carbamoyl-2-naphthalen-1-yl-ethyl)-2-(3-chloro-phenyl)-7-methyl-3-oxo-[1,4]diazepan-1-yl]-2-oxo-ethyl}-amide] | 90 nM |
